Laboratory results as given in ChEMBL document CHEMBL2385047, “Synthesis and antifungal evaluation of pentyloxyl-diphenylisoxazoloyl pneumocandins and echinocandins” (Bioorg Med Chem Lett, 2013).
In brackets after ≈: the same amount, converted by molar mass.

Assays:
Candida albicans [1] = test: Antifungal activity against Candida albicans MY1055 infected in DBA/2 mouse assessed as reduction of log CFU in kidney administered 30 mins as ip tid post infection measured after 24 hrs; format: functional
Candida albicans [2] = test: Antifungal activity against caspofungin-resistant Candida albicans CLY-16996 harboring 1,3-beta-D-glucan synthase component FKS1/FKS1 S645F mutant assessed as growth inhibition after 24 hrs by NCCLS broth microdilution method; format: functional; settings: CLY-16996, 24 h
[3] = Inhibition of caspofungin-resistant Candida albicans CLY-16997 1,3-beta-D-glucan synthase component FKS1/FKS1 S645P mutant using UDP[6,3H]-glucose as substrate after 60 mins by liquid scintillation counting analysis
[4] = Inhibition of caspofungin-resistant Candida albicans CLY-16996 1,3-beta-D-glucan synthase component FKS1/FKS1 S645F mutant using UDP[6,3H]-glucose as substrate after 60 mins by liquid scintillation counting analysis
Beta-1,3-glucan synthase = target: T1, Beta-1,3-glucan synthase (Candida albicans, UniProt O13383); test: Inhibition of wild type Candida albicans MY1055 1,3-beta-D-glucan synthase using UDP[6,3H]-glucose as substrate after 60 mins by liquid scintillation counting analysis
T1 sequence (O13383 whole entry): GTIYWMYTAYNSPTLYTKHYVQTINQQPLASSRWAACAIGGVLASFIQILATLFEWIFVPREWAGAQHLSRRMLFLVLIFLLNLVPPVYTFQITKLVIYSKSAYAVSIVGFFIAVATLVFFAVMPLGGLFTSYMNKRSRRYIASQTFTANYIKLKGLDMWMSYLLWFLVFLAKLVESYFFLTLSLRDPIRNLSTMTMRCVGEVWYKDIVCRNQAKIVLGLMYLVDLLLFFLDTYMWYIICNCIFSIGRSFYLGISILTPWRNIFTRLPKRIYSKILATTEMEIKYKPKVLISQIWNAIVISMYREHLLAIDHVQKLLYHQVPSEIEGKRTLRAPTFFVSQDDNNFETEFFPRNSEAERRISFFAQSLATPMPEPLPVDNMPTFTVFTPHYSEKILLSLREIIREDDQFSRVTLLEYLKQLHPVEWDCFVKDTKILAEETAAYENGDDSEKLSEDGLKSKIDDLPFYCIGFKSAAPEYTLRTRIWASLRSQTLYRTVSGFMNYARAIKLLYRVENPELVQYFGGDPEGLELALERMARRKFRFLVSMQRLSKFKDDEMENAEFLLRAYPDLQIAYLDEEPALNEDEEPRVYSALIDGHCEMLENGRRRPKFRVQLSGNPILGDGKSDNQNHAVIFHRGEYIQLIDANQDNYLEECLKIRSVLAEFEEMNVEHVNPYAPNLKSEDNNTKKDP

Escherichia coli = test: Antibacterial activity against Escherichia coli ATCC 25922 assessed as growth inhibition after 24 hrs by NCCLS broth microdilution method; format: functional; settings: ATCC 25922, 24 h, read-out: MIC100
Staphylococcus aureus = test: Antibacterial activity against methicillin-sensitive Staphylococcus aureus MB2865 assessed as growth inhibition after 24 hrs by NCCLS broth microdilution method; format: functional; settings: MB2865, 24 h, read-out: MIC100
Candida albicans [5] = test: Antifungal activity against Candida albicans NR3 assessed as growth inhibition after 24 hrs by NCCLS broth microdilution method; format: functional; settings: NR3, 24 h
Candida albicans [6] = test: Antifungal activity against Candida albicans CAI4-R1 assessed as growth inhibition after 24 hrs by NCCLS broth microdilution method; format: functional; settings: CAI4-R1, 24 h
Candida albicans [7] = test: Antifungal activity against wild type Candida albicans CAI4 assessed as growth inhibition after 24 hrs by NCCLS broth microdilution method; format: functional; settings: CAI4, 24 h
[8] = system: Meyerozyma guilliermondii; test: Antifungal activity against wild type Candida guilliermondii CLY308 assessed as growth inhibition after 24 hrs by NCCLS broth microdilution method; format: functional; settings: CLY308, 24 h
Aspergillus fumigatus = test: Antifungal activity against Aspergillus fumigatus MF5668 caspofungin spontaneous resistance mutant assessed as growth inhibition after 24 hrs by NCCLS broth microdilution method; format: functional; settings: MF5668, 24 h
Cryptococcus neoformans = test: Antifungal activity against capsular wild type Cryptococcus neoformans MY2061 assessed as growth inhibition after 24 hrs by NCCLS broth microdilution method; format: functional; settings: MY2061, 24 h, read-out: MIC100
Candida parapsilosis = test: Antifungal activity against wild type Candida parapsilosis ATCC 22019 assessed as growth inhibition after 24 hrs by NCCLS broth microdilution method; format: functional; settings: Lodderomyces parapsilosis, ATCC 22019, 24 h
Pichia kudriavzevii = test: Antifungal activity against wild type Candida krusei CLY549 assessed as growth inhibition after 24 hrs by NCCLS broth microdilution method; format: functional; settings: CLY549, 24 h
Clavispora lusitaniae = test: Antifungal activity against wild type Candida lusitaniae MY1396 assessed as growth inhibition after 24 hrs by NCCLS broth microdilution method; format: functional; settings: MY1396, 24 h
Nakaseomyces glabratus = test: Antifungal activity against wild type Candida glabrata MY1381 assessed as growth inhibition after 24 hrs by NCCLS broth microdilution method; format: functional; settings: MY1381, 24 h
Candida albicans [9] = test: Antifungal activity against wild type Candida albicans MY1055 assessed as growth inhibition after 24 hrs by NCCLS broth microdilution method in presence of human serum; format: functional; settings: MY1055, 24 h
Candida albicans [10] = test: Antifungal activity against wild type Candida albicans MY1055 assessed as growth inhibition after 24 hrs by NCCLS broth microdilution method; format: functional; settings: MY1055, 24 h

In the case of `CC[C@H](C)C[C@H](C)CCCCCCCCC(=O)N[C@H]1C[C@@H](O)[C@@H](NCCN)NC(=O)[C@@H]2[C@@H](O)CCN2C(=O)[C@H]([C@H](O)CCN)NC(=O)[C@H]([C@H](O)[C@@H](O)c2ccc(O)cc2)NC(=O)[C@@H]2C[C@@H](O)CN2C(=O)[C@H]([C@@H](C)O)NC1=O` [CASPOFUNGIN], the ED90 (Candida albicans [1]) is reported as 0.02 mg/kg/day, the ED99 (Candida albicans [1]) is reported as 0.15 mg/kg/day and the MIC (Candida albicans [2]) is reported as 64 µg/mL (≈ 58.5 µM). It also gave an IC50 [3] greater than 9.2 µM, an IC50 [4] greater than 92 µM and an IC50 (Beta-1,3-glucan synthase) of 0.00024 µM. The MIC (Escherichia coli) was greater than 32 µg/mL, the MIC (Staphylococcus aureus) was 32 µg/mL (≈ 29.3 µM) and the MIC80 (Candida albicans [5]) was 2 µg/mL (≈ 1.83 µM). The MIC (Candida albicans [5]; read-out: MIC100) was greater than 32 µg/mL, the MIC80 (Candida albicans [6]) was 1 µg/mL (≈ 0.915 µM) and the MIC (Candida albicans [6]; read-out: MIC100) was greater than 32 µg/mL. For the same compound, the MIC80 (Candida albicans [7]) was less than 0.03 µg/mL, the MIC (Candida albicans [7]; read-out: MIC100) was 0.125 µg/mL (≈ 0.114 µM) and the MIC80 [8] was 0.25 µg/mL (≈ 0.229 µM). The MIC ([8]; read-out: MIC100) was 1 µg/mL (≈ 0.915 µM), the MIC80 (Aspergillus fumigatus) was less than 0.03 µg/mL and the minimal effective concentration (Aspergillus fumigatus; read-out: MEC) was greater than 32 µg/mL. The MIC (Cryptococcus neoformans) was 16 µg/mL (≈ 14.6 µM), the MIC80 (Candida parapsilosis) was 0.25 µg/mL (≈ 0.229 µM) and the MIC (Candida parapsilosis; read-out: MIC100) was greater than 32 µg/mL. The MIC80 (Pichia kudriavzevii) was 0.25 µg/mL (≈ 0.229 µM), the MIC (Pichia kudriavzevii; read-out: MIC100) was 2 µg/mL (≈ 1.83 µM) and the MIC80 (Clavispora lusitaniae) was less than 0.03 µg/mL. The MIC (Clavispora lusitaniae; read-out: MIC100) was 0.5 µg/mL (≈ 0.457 µM), the MIC80 (Nakaseomyces glabratus) was 0.06 µg/mL (≈ 0.0549 µM) and the MIC (Nakaseomyces glabratus; read-out: MIC100) was 0.25 µg/mL (≈ 0.229 µM). It also gave an MIC80 (Candida albicans [9]) of 0.125 µg/mL, an MIC (Candida albicans [9]; read-out: MIC100) of 8 µg/mL and an MIC80 (Candida albicans [10]) of less than 0.03 µg/mL. It also gave an MIC (Candida albicans [10]; read-out: MIC100) of 0.06 µg/mL (≈ 0.0549 µM).
